Source: US20100292193A1, “RADIOPROTECTIVE DRUGS” (THE REGENTS OF THE UNIVERSITY OF CALIFORNIA, priority 2009, published 2010)

Experiments:
TiL-1 cells = experiment: ROS scavenging: intracellular ROS after irradiation (DCF-DA); type: cell-based; details: compound added 3 h before irradiation; DCF-DA 25 μM 1 h before; measured immediately after irradiation
Description: FIGS. 5A and 5B show the effect of CPA on ROS scavenging.
The effect of CPA on ROS scavenging was also evaluated. […] The intracellular ROS was measured immediately after irradiation in TiL-1 cells using 2′,7′-dichlorofluorescein diacetate (DCF-DA, Invitrogen). The compound and DCF-DA probe at 25 μM was added 3 h and 1 h before irradiation, respectively.

TiL1 cells = experiment: Cell viability assay with irradiated TiL1 cells (ATPlite); type: cell-based; details: 2Gy, ATPlite 24 hours after irradiation, normalized to vehicle control
Description: FIGS. 3A and 3B show radiation dose-responses of irradiated TiL1 cells treated with cyclopiazonic acid (CPA). Cell viability assay with TiL1 cells was measured using ATPlite reagent 24 h after irradiation with 2Gy. CPA was added to the cells 3 h before IR for protection (FIG. 3A) or 1 h after IR for mitigation (FIG. 3B) activities.
Dose-responses of irradiated cells treated with cyclopiazonic acid (CPA) were determined. A cell viability assay with TiL1 cells was measured using ATPlite reagent 24 hours after irradiation with 2Gy. CPA was added to the cells 3 h before irradiation for protection (FIG. 3A), or 1 hour after irradiation mitigation (FIG. 3B) activities. The percent cell viability plotted was normalized to vehicle control value. As shown in FIGS. 3A and 3B CPA both protects and mitigates TiL1 cell from radiation damage.

mice = experiment: Animal survival against a lethal dose total body irradiation; type: in vivo
Description: (§1) FIGS. 4A and 4B show the effect of CPA on animal survival against a lethal dose total body irradiation (TBI). FIG. 4A: Two oral administrations of CPA at 24 h and 1 h prior to irradiation at 8 Gy. FIG. 4B: CPA at 6 mg/kg or vehicle control was administered twice prior to irradiation as (FIG. 4A) along with un-irradiated control mice for Granulocyte-macrophage colony forming units.
The effect of CPA on animal survival against a lethal dose total body irradiation was determined. […] This effect was most prominent with CPA treatment at 6 mg/kg showing 89% survival while only 17% of controls survived.

bone marrow cells = experiment: Granulocyte-macrophage colony forming units from bone marrow after total body irradiation; type: in vivo, mice; details: 6 mg/kg twice prior to irradiation; bone marrow collected 3 d after TBI, counted 8-9 d after plating; p<0.05 IR vs IR+CPA
Description: as §1
CPA at 6 mg/kg or vehicle control was administered twice prior to irradiation as described above along with un-irradiated control mice for Granulocyte-macrophage colony forming units.

For `CC(C)(C)c1cc(O)c(C(C)(C)C)cc1O` [di-tBHQ, 2,5-ditertbutylhydroquinone, reference compound], the “reduction of irradiation induced reactive oxygen species” value (TiL-1 cells) was “did in dose-responsive manner”.
For cyclopiazonic acid [CPA], the “percent cell viability, mitigation activity” value (TiL1 cells; CPA added 1 hour after irradiation) was “mitigates”, the “percent cell viability, protection activity” value (TiL1 cells; CPA added 3 h before irradiation) was “protects” and the survival (mice; 6 mg/kg oral, 24 h and 1 h prior to irradiation at 8 Gy, 17% of controls survived) was 89%. For the same compound, the “protection from radiation-induced death” value (mice; two oral administrations at 24 h and 1 h prior to irradiation at 8 Gy) was “protected mice from radiation-induced death”, the “Gm-CFU, protection of the immunohematopoietic system” value (bone marrow cells) was “protects the immunohematopoietic system” and the “reduction of irradiation induced reactive oxygen species” value (TiL-1 cells) was “did not reduce”.
